In brackets after ≈: the same amount, converted by molar mass. Counter-ions that a name gives are not always drawn. Like-named read-outs stand apart in the source and are kept apart here.
Columns and labels:
[1] = Hygroscopicity measurement by DVS apparatus; assay type: physicochemical; conditions: for Change in Mass (%) Water uptake at 30% RH / Change in Mass (%) Water uptake at 60% RH / Change in Mass (%) Water uptake at 90% RH: DVS, 25° C.
Method: In another embodiment, 1:1 Compound (I) tartrate salt is characterized by a hygroscopicity measurement, wherein water uptake is less than 4% (e.g. 2% or 1%) of the mass of the tartrate salt at 90% relative humidity (RH); or less than 2% (e.g. 1% or 0.5%) of the mass of the tartrate salt at 60% RH; or less than 1% (e.g. 0.5% or 0.1%) of the mass of the tartrate salt at 30% RH. The hygroscopicity in different relative humidity (RH) is measured under following conditions: • i) drying between 0.5 and 1.5 mg of the tartrate salt under a nitrogen atmosphere at 0% relative humidity for 2 hours; • ii) increasing or decreasing the relative humidity in steps of 10% from 0% to 90% then to 0%; • iii) maintaining the relative humidity at each step until the mass change compared to the mass of the original tartrate salt per minute is less than 0.01 (%/min), provided that minimum and maximum duration time at each step is 10 minutes and 180 minutes, respectively; and • iv) measuring the mass of the tartrate salt at the desired relative humidity (e.g., 90%, 60%, or 30%) and wherein steps i)-iv) are carried out at 25° C.
The compound to be tested is submitted to hygroscopicity test by means of a DVS apparatus. The testing parameters are in Table 5.

[2] = Solubility in water, SGF and FaSSIF (supernatant by HPLC/UPLC); assay type: physicochemical; conditions: for Solubility (mg/mL) FaSSIF: fasted state simulated intestinal fluid buffer, target 2 mg/mL; for Solubility (mg/mL) FaSSIF / Solubility (mg/mL) SGF: 24 h at 37° C.; for Solubility (mg/mL) SGF: simulated gastric fluid buffer, target 10 mg/mL; for Solubility (mg/mL) water: stirred 1 h at ambient temperature, analyzed at 24 h
Method: The compounds to be tested were prepared in 3 different media as described below.
Samples prepared in water: approximately 30-40 mg of test material was weighted into a glass vial. 1 mL of water was added. The sample was stirred for 1 h at ambient temperature and the sample was analyzed by HPLC at 24 h.
Samples prepared in simulated gastric fluid (SGF) buffer: approximately 40 mg of test material was weighted into a glass vial. 4 mL of SGF buffer was added to make a target concentration at 10 mg/mL. The sample was stirred for 24 h at 37° C. and the sample was analyzed by HPLC at 24 h.
Samples prepared in fasted state simulated intestinal fluid (FaSSIF) buffer: approximately 8 mg of test material was weighted into a glass vial. 4 mL of FassiF buffer was added to make a target concentration at 2 mg/mL. The sample was stirred for 24 h at 37° C. and the sample was analyzed by HPLC at 24 h.
The samples were stirred for 1 h at ambient temperature or 24 h at 37° C. The samples were then centrifuged and the resulting supernatants were analyzed by HPLC to determine the solubility.

[3] = Pharmacokinetics after single oral dose (powder in capsule), Compound (I) plasma level by LC/MS; assay type: in vivo, male Beagle dogs
Method: A single dose as powder in capsule of Compound (I), 1:1 Compound (I) mono HCl salt (Batch 3), di-HCl salt of Compound (I), and 1:1 Compound (I) tartrate salt was administrated to male Beagle dogs at either 125 mg/kg or 150 mg/kg. Blood samples were collected for up to 24 h and the plasma was analyzed for Compound (I) plasma level by LC/MS.

[4] = Long term stability under 3 storage conditions (appearance, HPLC purity/impurities, XRPD form); assay type: physicochemical; conditions: for Purity / Total amount of impurities: HPLC; for Crystalline form: XRPD
Method: A representative method used for stability evaluation is summarized Table 2.
Purity and stability of 4-amino-5-(6-(4-methylpiperazin-1-yl)-1H-benzo[d]imidazol-2-yl)thieno[2,3-b]pyridin-6(7H)-one (I) tartrate have been tested. Stability samples were prepared and stored under 3 different storage conditions: 2-8° C./ambient RH, 25° C./60% RH, and 40° C./75% RH. Stability samples were removed from their storage conditions within each pull window, and the samples were allowed to equilibrate to ambient conditions prior to analysis. The appearance was evaluated by visual inspection, purity and total amount of impurities were analyzed by HPLC and crystalline form was characterized by XRPD.

SMILES: CN1CCN(c2ccc3nc(-c4c(N)c5ccsc5[nH]c4=O)[nH]c3c2)CC1 [Free base, 4-amino-5-(6-(4-methylpiperazin-1-yl)-1H-benzo[d]imidazol-2-yl)thieno[2,3-b]pyridin-6(7H)-one]
- Change in Mass (%) Water uptake at 30% RH [1]: 0.5%
- Change in Mass (%) Water uptake at 60% RH [1]: 0.9%
- Change in Mass (%) Water uptake at 90% RH [1]: 26%
- Solubility (mg/mL) FaSSIF [2]: 0.09 mg/mL (≈ 237 µM)
- Solubility (mg/mL) SGF [2]: 0.5 mg/mL (≈ 1310 µM)
- Solubility (mg/mL) water [2]: 0.3 mg/mL (≈ 788 µM)
- AUC0−tlast ([3]; beagle dogs, oral dose 125 mg/kg, powder in capsule, plasma, up to 24 h, 125 mg/kg): 2264 ng·h/mL
- Cmax ([3]; male, beagle, dog, plasma, po, 125 mg/kg, beagle dogs, oral dose 125 mg/kg, powder in capsule, plasma, read-out: Cmax): 301 ng/mL

SMILES: CN1CCN(c2ccc3nc(-c4c(N)c5ccsc5[nH]c4=O)[nH]c3c2)CC1 [Tartrate salt, 4-amino-5-(6-(4-methylpiperazin-1-yl)-1H-benzo[d]imidazol-2-yl)thieno[2,3-b]pyridin-6(7H)-one (I) tartrate]
- Change in Mass (%) Water uptake at 30% RH [1]: 0.06%
- Change in Mass (%) Water uptake at 60% RH [1]: 0.3%
- Change in Mass (%) Water uptake at 90% RH [1]: 0.7%
- Hygroscopicity (in words) ([1]; crystalline form, see Example 6): non-hygroscopic
- Solubility (mg/mL) FaSSIF [2]: 0.02 mg/mL
- Solubility in water and in simulated gastric fluids (in words) ([2]; see Example 7 and Table 7): improved solubility
- Solubility (mg/mL) SGF [2]: 9.0 mg/mL
- Purity ([4]; 5° C./ambient RH, 1 month): 100%
- Total amount of impurities ([4]; 5° C./ambient RH, 1 month): 0.03%
- Purity ([4]; 5° C./ambient RH, 3 month): 100%
- Total amount of impurities ([4]; 5° C./ambient RH, 3 month): 0.0%
- Purity ([4]; 5° C./ambient RH, 6 month): 100%
- Total amount of impurities ([4]; 5° C./ambient RH, 6 month): 0.03%
- Purity ([4]; 5° C./ambient RH, 12 month): 100%
- Total amount of impurities ([4]; 5° C./ambient RH, 12 month): 0.03%
- Purity ([4]; 5° C./ambient RH, Initial): 100%
- Total amount of impurities ([4]; 5° C./ambient RH, Initial): 0.03%
- Crystalline form ([4]; 5° C./ambient RH, Initial): Yes
- Purity ([4]; 25° C./60% RH, 1 month): 100%
- Total amount of impurities ([4]; 25° C./60% RH, 1 month): 0.02%
- Purity ([4]; 25° C./60% RH, 3 month): 100%
- Total amount of impurities ([4]; 25° C./60% RH, 3 month): 0.03%
- Purity ([4]; 25° C./60% RH, 6 month): 100%
- Total amount of impurities ([4]; 25° C./60% RH, 6 month): 0.03%
- Purity ([4]; 25° C./60% RH, 12 month): 100%
- Total amount of impurities ([4]; 25° C./60% RH, 12 month): 0.03%
- Purity ([4]; 25° C./60% RH, Initial): 100%
- Total amount of impurities ([4]; 25° C./60% RH, Initial): 0.03%
- Crystalline form ([4]; 25° C./60% RH, Initial): Yes
- Purity ([4]; 40° C./75% RH, 1 month): 100%
- Total amount of impurities ([4]; 40° C./75% RH, 1 month): 0.02%
- Purity ([4]; 40° C./75% RH, 3 month): 100%
- Total amount of impurities ([4]; 40° C./75% RH, 3 month): 0.03%
- Purity ([4]; 40° C./75% RH, 6 month): 100%
- Total amount of impurities ([4]; 40° C./75% RH, 6 month): 0.03%
- Purity ([4]; 40° C./75% RH, 12 month): 100%
- Total amount of impurities ([4]; 40° C./75% RH, 12 month): 0.03%
- Purity ([4]; 40° C./75% RH, Initial): 100%
- Total amount of impurities ([4]; 40° C./75% RH, Initial): 0.03%
- Crystalline form ([4]; 40° C./75% RH, Initial): Yes
- Shelf life (in words) ([4]; see Example 8): extended shelf life
- Plasma concentrations in dogs following oral administration (in words) ([3]; compared to the free base and the mono HCl salt): improved plasma concentrations
- AUC(0-t) ([3]; male, beagle, dog, plasma, po, 150 mg/kg, beagle dogs, oral dose 150 mg/kg, powder in capsule, plasma, up to 24 h, read-out: AUC0−tlast): 6550 ng·h/mL
- Cmax ([3]; male, beagle, dog, plasma, po, 150 mg/kg, beagle dogs, oral dose 150 mg/kg, powder in capsule, plasma, read-out: Cmax): 514 ng/mL

SMILES: CN1CCN(c2ccc3nc(-c4c(N)c5ccsc5[nH]c4=O)[nH]c3c2)CC1 [Mono HCl salt (Batch 3)]
- Change in Mass (%) Water uptake at 30% RH [1]: 3.7%
- Change in Mass (%) Water uptake at 60% RH [1]: 6.1%
- Change in Mass (%) Water uptake at 90% RH [1]: 38.3%
- Solubility (mg/mL) FaSSIF ([2]; Batch 3): 0.22 mg/mL
- Solubility (mg/mL) SGF ([2]; Batch 3): 9.0 mg/mL
- Solubility (mg/mL) water ([2]; Batch 3): 10.2 mg/mL
- AUC0−tlast ([3]; beagle dogs, oral dose 125 mg/kg, powder in capsule, plasma, up to 24 h, listed as Mono HCl (Batch 3), 125 mg/kg): 4354 ng·h/mL
- Cmax ([3]; beagle dogs, oral dose 125 mg/kg, powder in capsule, plasma, listed as Mono HCl (Batch 3), 125 mg/kg): 547 ng/mL

SMILES: CN1CCN(c2ccc3[nH]c(-c4c(N)c5ccsc5[nH]c4=O)nc3c2)CC1 [Di-HCl salt, 4-amino-5-(6-(4-methylpiperazin-1-yl)-1H-benzo[d]imidazol-2-yl)thieno[2,3-b]pydidin-6(7H)-one (I) Di-Hydrochloride]
- Solubility (mg/mL) water ([2]; Di-Hydrochloride): 3.3 mg/mL
- AUC0−tlast ([3]; beagle dogs, oral dose 125 mg/kg, powder in capsule, plasma, up to 24 h, Di-Hydrochloride, 125 mg/kg): 6862 ng·h/mL
- Cmax ([3]; beagle dogs, oral dose 125 mg/kg, powder in capsule, plasma, Di-Hydrochloride, 125 mg/kg): 530 ng/mL

— patent US12624049B2, “Salt and crystal forms of 4-amino-5-(6-(4-methylpiperazin-1-yl)-1H-benzo[d]imidazol-z-yl)thieno[2.3-b]pyridin-6(7H)-one” (UNIVERSITY HEALTH NETWORK, priority 2020, dated 2026)
